From patent US7192906B2, “Substituted pyrazole derivatives, production process thereof, and herbicide compositions containing the derivatives” (SDS Biotech K.K., priority 2001, dated 2007)

Columns and labels:
Format in all cases: in vivo
[1] = tested on: Rice (Oryza sativa); assay: Test Example 3 paddy field treatment, crop phytotoxicity; conditions: active ingredient 1 kg per hectare, index 0-5; for Herbicidal activity (phytotoxicity) OS: Table 6, paddy field treatment, transplanted rice, 21st day after dropping; for Herbicidal activity OS (phytotoxicity to rice): paddy field treatment, transplanted rice Koshihikari, wettable powder, 21st day after the dropping
Protocol: (§1) A plastic pot of 130 cm^2 was filled with paddy soil, and soil puddling was carried out to adjust the submerged depth to 4 cm. Subsequently, seeds of Echinochloa crusgalli, Monochoria vaginalis, Ammannia multiflora and Scirpus juncoides were sowed, and rice (Oryza sative, variety: Koshihikari) of two-leaf period was transplanted by 2 rice plants of 1 stub per pot at a depth of 3 cm. On the 10th day after the transplantation, the wettable powder prepared in Formulation Example 1 was diluted with water such that the amount of the active ingredient became 1 kg per hectare, and then dropped to diffuse on the water surface. On the 21st day after the dropping, observation and evaluation were carried out according to the aforesaid criteria.
(§2) Herbicidal activity was evaluated based on the following criteria.
(§3) • 5: herbicidal effect of not less than 90%, or phytotoxicity of 90% or more • 4: herbicidal effect of not less than 70% and less than 90%, or phytotoxicity of 70% or more and less than 90% • 3: herbicidal effect of not less than 50% and less than 70%, or phytotoxicity of 50% or more and less than 70% • 2: herbicidal effect of not less than 30% and less than 50%, or phytotoxicity of 30% or more and less than 50% • 1: herbicidal effect of not less than 10% and less than 30%, or phytotoxicity of 10% or more and less than 30% • 0: herbicidal effect of not less than 0% and less than 10%, or phytotoxicity of 0% or more and less than 10%

[2] = tested on: Scirpus juncoides; assay: Test Example 3 paddy field treatment; conditions: active ingredient 1 kg per hectare, index 0-5
Protocol: as §1, §2, §3

[3] = tested on: Ammannia multiflora; assay: Test Example 3 paddy field treatment; conditions: active ingredient 1 kg per hectare, index 0-5
Protocol: as §1, §2, §3

[4] = tested on: Echinochloa crusgalli; assay: Test Example 3 paddy field treatment; conditions: active ingredient 1 kg per hectare, index 0-5
Protocol: as §1, §2, §3

[5] = tested on: Monochoria vaginalis; assay: Test Example 3 paddy field treatment; conditions: active ingredient 1 kg per hectare, index 0-5
Protocol: as §1, §2, §3

[6] = tested on: Digitaria adscendens; assay: Test Example 1 upland field foliage treatment; conditions: Table 4, upland field foliage treatment, index 0-5
Protocol: (§4) A plastic pot of 130 cm^2 was filled with upland soil. Subsequently, weed seeds of Setaria viridis, Digitaria adscendens, Chenopodium album and Stellaria media, and crop seeds of soybean (Glycine max) and wheat (Triticum aestivum), were sowed and covered with soil of about 1 cm thickness. On the 14th day after the sowing, the wettable powder prepared in Formulation Example 1 was diluted with water such that the amount of the active ingredient became 1 kg per hectare, and then uniformly applied to the plant leaf surfaces. On the 21st day after the application, observation and evaluation were carried out according to the criteria described below.
as §2, §3

[7] = tested on: Stellaria media; assay: Test Example 1 upland field foliage treatment; conditions: Table 4, upland field foliage treatment, index 0-5
Protocol: as §4, §2, §3

[8] = tested on: Setaria viridis; assay: Test Example 1 upland field foliage treatment; conditions: Table 4, upland field foliage treatment, index 0-5
Protocol: as §4, §2, §3

[9] = tested on: Chenopodium album; assay: Test Example 1 upland field foliage treatment; conditions: Table 4, upland field foliage treatment, index 0-5
Protocol: as §4, §2, §3

[10] = tested on: wheat (Triticum aestivum); assay: Test Example 1 upland field foliage treatment, crop phytotoxicity; conditions: Table 4, upland field foliage treatment, index 0-5
Protocol: as §4, §2, §3

[11] = tested on: soybean (Glycine max); assay: as above; conditions: Table 4, upland field foliage treatment, index 0-5
Protocol: as §4, §2, §3

[12] = Table 6, paddy field treatment, 21st day after dropping
[13] = paddy field treatment, wettable powder, 21st day after the dropping

SMILES	Herbicidal activity (phytotoxicity) OS [1]	Herbicidal activity SJ [2, 12]	Herbicidal activity AM [3, 12]	Herbicidal activity EC [4, 12]	Herbicidal activity MV [5, 12]	Herbicidal activity OS (phytotoxicity to rice) [1]	Herbicidal activity SJ [2, 13]	Herbicidal activity AM [3, 13]	Herbicidal activity EC [4, 13]	Herbicidal activity MV [5, 13]	other results
CNC(=O)C(Cn1cc(C)c(-c2ccc(C(F)(F)F)c(F)c2)n1)=NOC [Compound 87]	0 (herbicidal effect of not less than 0% and less than 10%, or phytotoxicity of 0% or more and less than 10%)	5 (herbicidal effect of not less than 90%, or phytotoxicity of 90% or more)	5 (herbicidal effect of not less than 90%, or phytotoxicity of 90% or more)	5 (herbicidal effect of not less than 90%, or phytotoxicity of 90% or more)	5 (herbicidal effect of not less than 90%, or phytotoxicity of 90% or more)	–	–	–	–	–	–
CNC(=O)C(Cn1cc(C)c(-c2ccccc2C)n1)=NOC [Compound 35]	–	–	–	–	–	0 (herbicidal effect of not less than 0% and less than 10%, or phytotoxicity of 0% or more and less than 10%)	4 (herbicidal effect of not less than 70% and less than 90%, or phytotoxicity of 70% or more and less than 90%)	4 (herbicidal effect of not less than 70% and less than 90%, or phytotoxicity of 70% or more and less than 90%)	5 (herbicidal effect of not less than 90%, or phytotoxicity of 90% or more)	4 (herbicidal effect of not less than 70% and less than 90%, or phytotoxicity of 70% or more and less than 90%)	–
CNC(=O)C(Cn1cc(C)c(-c2ccc(C(F)(F)F)cc2)n1)=NOC [Compound 40]	–	–	–	–	–	0 (herbicidal effect of not less than 0% and less than 10%, or phytotoxicity of 0% or more and less than 10%)	5 (herbicidal effect of not less than 90%, or phytotoxicity of 90% or more)	5 (herbicidal effect of not less than 90%, or phytotoxicity of 90% or more)	5 (herbicidal effect of not less than 90%, or phytotoxicity of 90% or more)	5 (herbicidal effect of not less than 90%, or phytotoxicity of 90% or more)	–
CON=C(Cn1cc(C)c(-c2ccccc2)n1)C(=O)N1CCCCC1 [Compound 119]	0 (herbicidal effect of not less than 0% and less than 10%, or phytotoxicity of 0% or more and less than 10%)	3 (herbicidal effect of not less than 50% and less than 70%, or phytotoxicity of 50% or more and less than 70%)	4 (herbicidal effect of not less than 70% and less than 90%, or phytotoxicity of 70% or more and less than 90%)	3 (herbicidal effect of not less than 50% and less than 70%, or phytotoxicity of 50% or more and less than 70%)	4 (herbicidal effect of not less than 70% and less than 90%, or phytotoxicity of 70% or more and less than 90%)	–	–	–	–	–	–
CNC(=O)C(Cn1cc(C)c(-c2cc(F)cc(F)c2)n1)=NOC [Compound 60]	0 (herbicidal effect of not less than 0% and less than 10%, or phytotoxicity of 0% or more and less than 10%)	5 (herbicidal effect of not less than 90%, or phytotoxicity of 90% or more)	5 (herbicidal effect of not less than 90%, or phytotoxicity of 90% or more)	5 (herbicidal effect of not less than 90%, or phytotoxicity of 90% or more)	5 (herbicidal effect of not less than 90%, or phytotoxicity of 90% or more)	–	–	–	–	–	–
CNC(=O)C(Cn1cc(C)c(-c2ccc(C(F)(F)F)cc2F)n1)=NOC [Compound 85]	–	–	–	–	–	–	–	–	–	–	Herbicidal activity DA: Digitaria adscendens [6]: 4 (herbicidal effect of not less than 70% and less than 90%, or phytotoxicity of 70% or more and less than 90%); Herbicidal activity SM: Stellaria media [7]: 5 (herbicidal effect of not less than 90%, or phytotoxicity of 90% or more); Herbicidal activity SV: Setaria viridis [8]: 4 (herbicidal effect of not less than 70% and less than 90%, or phytotoxicity of 70% or more and less than 90%); Herbicidal activity CA: Chenopodium album [9]: 5 (herbicidal effect of not less than 90%, or phytotoxicity of 90% or more); Herbicidal activity (phytotoxicity) TA: Wheat (Triticum aestivum) [10]: 0 (herbicidal effect of not less than 0% and less than 10%, or phytotoxicity of 0% or more and less than 10%); Herbicidal activity (phytotoxicity) GM: Soybean (Glycine max) [11]: 0 (herbicidal effect of not less than 0% and less than 10%, or phytotoxicity of 0% or more and less than 10%)
CON=C(Cn1cc(C)c(-c2ccccc2)n1)C(=O)NNC(=O)OC [Compound 123]	0 (herbicidal effect of not less than 0% and less than 10%, or phytotoxicity of 0% or more and less than 10%)	3 (herbicidal effect of not less than 50% and less than 70%, or phytotoxicity of 50% or more and less than 70%)	4 (herbicidal effect of not less than 70% and less than 90%, or phytotoxicity of 70% or more and less than 90%)	3 (herbicidal effect of not less than 50% and less than 70%, or phytotoxicity of 50% or more and less than 70%)	4 (herbicidal effect of not less than 70% and less than 90%, or phytotoxicity of 70% or more and less than 90%)	–	–	–	–	–	–
CNC(=O)C(Cn1cc(C)c(-c2ccc(OC)c(F)c2)n1)=NOC [Compound 76]	0 (herbicidal effect of not less than 0% and less than 10%, or phytotoxicity of 0% or more and less than 10%)	5 (herbicidal effect of not less than 90%, or phytotoxicity of 90% or more)	5 (herbicidal effect of not less than 90%, or phytotoxicity of 90% or more)	5 (herbicidal effect of not less than 90%, or phytotoxicity of 90% or more)	5 (herbicidal effect of not less than 90%, or phytotoxicity of 90% or more)	–	–	–	–	–	–
CNC(=O)C(Cn1cc(C)c(-c2cccc(Br)c2)n1)=NOC [Compound 49]	–	–	–	–	–	1 (herbicidal effect of not less than 10% and less than 30%, or phytotoxicity of 10% or more and less than 30%)	5 (herbicidal effect of not less than 90%, or phytotoxicity of 90% or more)	5 (herbicidal effect of not less than 90%, or phytotoxicity of 90% or more)	5 (herbicidal effect of not less than 90%, or phytotoxicity of 90% or more)	5 (herbicidal effect of not less than 90%, or phytotoxicity of 90% or more)	–
CON=C(Cn1cc(C)c(-c2ccccc2)n1)C(=O)NC(C)c1ccccc1 (centres unmarked) [Compound 31]	–	–	–	–	–	0 (herbicidal effect of not less than 0% and less than 10%, or phytotoxicity of 0% or more and less than 10%)	4 (herbicidal effect of not less than 70% and less than 90%, or phytotoxicity of 70% or more and less than 90%)	4 (herbicidal effect of not less than 70% and less than 90%, or phytotoxicity of 70% or more and less than 90%)	3 (herbicidal effect of not less than 50% and less than 70%, or phytotoxicity of 50% or more and less than 70%)	5 (herbicidal effect of not less than 90%, or phytotoxicity of 90% or more)	–
CNC(=O)C(Cn1cc(C)c(-c2ccc(C(C)C)cc2)n1)=NOC [Compound 38]	–	–	–	–	–	0 (herbicidal effect of not less than 0% and less than 10%, or phytotoxicity of 0% or more and less than 10%)	5 (herbicidal effect of not less than 90%, or phytotoxicity of 90% or more)	5 (herbicidal effect of not less than 90%, or phytotoxicity of 90% or more)	5 (herbicidal effect of not less than 90%, or phytotoxicity of 90% or more)	5 (herbicidal effect of not less than 90%, or phytotoxicity of 90% or more)	–
